In patent publication US9322034B2, “Compositions and methods for detecting and modulating cell death by a translation regulated gene expression system” (Wayne State University, priority 2007, dated 2016):

Key:
[1] = tested on: HEK293 cells expressing the TRplp-fLUC or TRdm-fLUC expression cassette; assay: Cytotoxicity assay by Western blot, monocistronic TR-fLUC cassettes; type: cell-based, human
Description: For this example, expression and regulation of the TRplp-EYFP, TRdm-EYFP, TRplp-fLUC, or TRdm-fLUC expression cassettes in stably transformed HEK293 cells are validated using Western blot analysis. Cell lines or pools are grown in six-well trays or 60 mm dishes to about 60% confluence and treated with complete medium supplemented with a toxic chemical. […] Control samples are treated with fresh medium. Treated and control cells were removed by pipette, collected in media, pelleted for 5 min at 800 rpm (room temperature), and either stored at −70/−80° C. or immediately processed for total proteins.
For protein extraction, cells are resuspended in equal volumes of Suspension Buffer (100 mM NaCl, 10 mM Tris-HCl [pH 7.6], 1 mM EDTA, 1 mg/mL aprotinin, 100 μg/mL PMSF) and 2×SDS Buffer (100 mM Tris-HCl [pH 6.8], 4% SDS, 20% glycerol, 200 mM DTT). Frozen cells are thawed on ice prior to resuspension. The extracts are homogenized by several passages through a syringe fitted with a 26 G needle. Samples are subsequently incubated at RT for 1-2 hr. Samples are transferred to −70/−80° C. for storage or applied to an SDS PAGE gel and examined by Western blot analysis.
To insure equal protein loading levels on Western blots, 10 μL of each protein extract are initially resolved by SDS PAGE, fixed overnight in Preblot gel fixer (25% isopropanol, 10% acetic acid), and stained in 0.05% Coomassie blue (0.05% brilliant blue R, 50% methanol, 10% acetic acid) for 20 min, RT. Gels are destained in 10% acetic acid and dried under vacuum. Using the dried gels, any necessary volume adjustment was made to samples prior to Western blotting.
Western blot analysis is a well established technique in the art and is summarized in the following. Following SDS PAGE gel resolution and protein transfer to a solid membrane support by electrophoresis, the membranes are dried overnight. […] Similarly, fLUC protein is detected using an anti-fLUC antibody (Sigma; 1:1000 dilution). After incubation with a primary antibody and extensive washing (1×PBS-T), proteins binding the primary antibody are detected by incubation with a horseradish peroxidase (HRP) conjugated anti-rabbit or anti-mouse antibody (Amersham; 1:5000 to 1:10000 dilution). Following incubation with the secondary antibody and extensive washing, reactive proteins are detected with the ECL reagent system (Amersham) as described by the vendor.
Following treatment with toxic levels of the calcium ionophore A23187, highly significant increases in fLuc protein levels are observed in the stressed and dying cells that were not evident in untreated cultures. Individual protein bands are quantitated by densitometry on a Beckman DU7400 spectrophotometer.

[2] = tested on: HEK293 TRplp-EYFP and TRplp-fLUC colonies; assay: Microplate reader screen at fixed time and toxin concentration; type: cell-based, human; details: 12 hr
Description: For this example, HEK293 cells expressing the TRplp-EYFP, TRdm-EYFP, TRplp fLUC and TRdm-fLUC expression cassettes are evaluated using a microplate reader. To quantitate the TR translational response, 24,000 cells are plated in a 96-well microtiter plates and allowed to grow for about 40 hr to achieve the proper cell density prior to incubation with a toxic agent. Each well is cultured with complete DMEM medium containing either no toxin or a defined concentration of toxin and incubated at 37 C for specific time periods. At that time, fluorescence or chemiluminescence on a FLUOstar Optima (BMG Labtech) microplate reader is used measure TR-ORF response.
Direct detection of the spontaneously fluorescent EYFP protein fluorophore is achieved by excitation of samples in black optical bottom 96-well trays with a fluorescein filter (545 nm) or a YFP filter (YFPex) and emission measured at 590 nm or 544 nm using gains of 1000-2000. To reduce the background fluorescence associated with media components, the trays are centrifuged at 1200 rpm, RT for 3 min to collect any floating cells, and the media replaced with 200 microliters of 1×PBS prior to detection. For the fLUC protein, protein activity is quantified by luminescence produced during live cell or lysed cell luciferase assays. […] Luminescence was detected using lens filter at gains of 2000-3000. […]

**Q.** `CNc1ccc2oc(C[C@H]3O[C@@]4(CC[C@H]3C)O[C@H]([C@H](C)C(=O)c3ccc[nH]3)[C@H](C)C[C@H]4C)nc2c1C(=O)O` [calcium ionophore A23187] was tested. Which “average increase in fLuc protein levels in stressed and dying cells” value ([1]; HEK293 TRdm-fLuc cells, n=6) did it give?
**A.** 524.3%

**Q.** And the “average increase in fLuc protein levels in stressed and dying cells” value ([1]; HEK293 TRplp-fLuc expressing cells, n=5)?
**A.** 402.8%

**Q.** And the “increases in fLUC protein levels, % of the protein levels detected in untreated TRplp-fLUC/TRdm-fLUC cells” value ([1]; cell pools and lines, toxic levels (5-6.7 micromolar), densitometry of Western blot)?
**A.** 160-800%

**Q.** And the “fLUC protein levels in stressed and dying TR-fLUC cells, % of the protein levels of cells expressing cap-dependent CMV-fLuc” value ([1]; toxin-treated cells, FIG. 6)?
**A.** ≤ 110%

**Q.** What about the “TR response in screening assay” value ([2]; HEK293 TRplp-EYFP subclone #41, 6.7 micromolar) of the same molecule?
**A.** significant TR responses

**Q.** And the “TR response in screening assay” value ([2]; HEK293 TRplp-fLUC subclone #3, 6.7 micromolar, live cell assay)?
**A.** significant TR responses
